Legend:
Type in all cases: cell-based
SW480 colon cancer cells = assay: Cell viability assay (CellTiter-Blue) in SW480 colon cancer cells; settings: Homo sapiens, 96 h; for inhibition at 10 µM: four days, CellTiter-Blue, read-out: percent inhibition at 10 μM (given for EC50 of >10 μM); for EC50: four days incubation, CellTiter-Blue cell viability
Procedure: Representative compounds were screened using the following assay procedure to assess the effect on cell viability as described below.
Each compound was dissolved in DMSO as a 10 mM stock and used to prepare compound source plates. Serial dilution (1:3, 8-point dose-response curves from 10 μM to 0.004 μM) and compound transfer was performed using the ECHO 550 (Labcyte, Sunnyvale, Calif.) into 96-well clear bottom, black-walled plates (Corning-Costar).
Approximately 2×10^3 SW480 colon cancer cells were seeded into each well and allowed to incubate in the presence or absence of compound for four days at 37° C./5% CO2. Eight replicates of DMSO-treated cells served as controls and cells treated with compound were performed in duplicate.
After incubation, 20 μL of CellTiter-Blue (Promega) was added to each well allowed to incubate for approximately 3 hours. This reagent was a buffered solution which contains resazurin, metabolically active cells were able to reduce rezarurin (blue) into resorufin (pink) which was highly fluorescent. This measured fluorescence was used as a readout for cell viability.
After incubation, the plates were read at Ex 560 nm Em 590 nm (Cytation 3, BioTek). Dose-response curves were generated and EC50 concentration values were calculated using non-linear regression curve fit in the GraphPad Prism (San Diego, Calif.) or Dotmatics' Studies Software (Bishops Stortford, UK). For EC50 of >10 μM, the percent inhibition at 10 μM is provided.

[1] = test system: LL29 cells (primary human fibroblasts derived from IPF patients) treated with TGF-β1, α-smooth muscle actin; assay: Inhibition of the fibrotic process: αSMA staining in TGF-β1 treated primary human fibroblasts from IPF patients (LL29 cells); settings: Fibroblast, 96 h; for EC50: LL29 cells treated with TGF-β1 (20 ng/mL), 4 days; for inhibition at 10 µM: LL29 cells treated with TGF-β1, 4 days, read-out: percent inhibition in brackets (given for EC50 >10 μM)
Source text: Representative compounds were screened using primary human fibroblasts (derived from IPF patients) treated with TGF-β1 to determine their ability to inhibit the fibrotic process.
Human Fibroblast Cell Culture: Primary human fibroblasts derived from IPF patients (LL29 cells) [^1Xiaoqiu Liu, et.al., “Fibrotic Lung Fibroblasts Show Blunted Inhibition by cAMP Due to Deficient cAMP Response Element-Binding Protein Phosphorylation”, Journal of Pharmacology and Experimental Therapeutics (2005), 315(2), 678-687; ^2Watts, K. L., et.al., “RhoA signaling modulates cyclin D1 expression in human lung fibroblasts; implications for idiopathic pulmonary fibrosis”, Respiratory Research (2006), 7(1), 88] were obtained from American Type Culture Collection (ATCC) and expanded in F12 medium supplemented with 15% Fetal Bovine Serum and Penicillin/Streptomycin.
Compound Screening: Each compound was dissolved in DMSO as a 10 mM stock and used to prepare compound source plates. […] LL29 cells are plated at 1,500 cells/well in 80 μL/well F12 medium supplemented with 1% Fetal Bovine Serum. One hour after addition of the cells, TGF-β1 (Peprotech; 20 ng/mL) was added to the plates to induce fibrosis (ref. 1 and 2 above). Wells treated with TGF-β1 and containing DMSO were used as controls. Cells were incubated at 37° C. and 5% CO2 for 4 days. Following incubation for 4 days, SYTOX green nucleic acid stain (Life Technologies [Thermo Fisher Scientific]) was added to the wells at a final concentration of 1 μM and incubated at room temperature for 30 min. Cells were then fixed using 4% formaldehyde (Electron Microscopy Sciences), washed 3 times with PBS followed by blocking and permeabilization using 3% Bovine Serum Albumin (BSA; Sigma) and 0.3% Triton X-100 (Sigma) in PBS. Cells were then stained with antibody specific to α-smooth muscle actin (αSMA; Abcam) (ref. 1 and 2 above) in 3% Bovine Serum Albumin (BSA; Sigma) and 0.3% Triton X-100 (Sigma) in PBS, and incubated overnight at 4° C. Cells were then washed 3 times with PBS, followed by incubation with Alexa Flor-647 conjugated secondary antibody (Life Technologies [Thermo Fisher Scientific]) and DAPI at room temperature for 1 hour. Cells were then washed 3 times with PBS and plates were sealed for imaging. αSMA staining was imaged by excitation at 630 nm and emission at 665 nm and quantified using the Compartmental Analysis program on the CellInsight CX5 (Thermo Scientific). Dead or apoptotic cells were excluded from analysis based on positive SYTOX green staining. % of total cells positive for αSMA were counted in each well and normalized to the average of 11 wells treated with TGF-β1 on the same plate using Dotmatics' Studies Software. The normalized averages (fold change over untreated) of 3 replicate wells for each compound concentration were used to create dose-responses curves and EC50 values were calculated using non-linear regression curve fit in the Dotmatics' Studies Software. For EC50 of >10 μM, the percent inhibition at 10 μM is provided.

IL-6 in THP-1 cells = assay: Inhibition of IL-6 in LPS-stimulated THP-1 human monocyte cells (HTRF); settings: IL-6 HTRF; for EC50: 500 ng/mL LPS, 22 hours; for inhibition at 10 µM: LPS, read-out: percent inhibition in brackets (given for EC50 >10 μM)
Procedure: Human Monocyte Cell Culture: Human monocyte cell line (THP-1 cells; Catalog # TIB-202, ATCC, Manassas, Va.) were cultured in Roswell Park Memorial Institute (RPMI) 1640 Medium (Catalog #21870-100, Buffalo, N.Y.) with 1% L-glutamine, 1% HEPES, 1% Sodium Pyruvate, 2% Sodium Bicarbonate supplemented with 100 units/mL penicillin, 50 μg/mL streptomycin, 2-mercaptoethanol (0.05 mM) [basal medium] and 10% fetal bovine serum (Catalog #16140089, Life Technologies, Carlsbad, Calif.) at 37° C. and 5% CO2.
Compound Screening: THP-1 cells were cultured in basal media with 1% FBS for 24 hours before the start of the assay. Each compound was dissolved in DMSO as a 10 mM stock and used to prepare compound source plates. Serial dilution (1:3, 10-point dose-response curves starting from 10 μM) and compound transfer was performed using the ECHO 550 (Labcyte, Sunnyvale, Calif.) into 384-well white low volume assay plates (Greiner Bio-One) with appropriate DMSO backfill for a final DMSO concentration of 0.1%. THP-1 cells were plated at 5000 cells/well in the 384-well plates and incubated at 37° C. for 2 h. 500 ng/mL of LPS was added after 2 hours and cells were incubated for another 22 hours at 37° C. Plates were spun in a centrifuge for 1 minute at […] and a mixture of anti-IL6 XL665, and anti-IL6 Cryptate diluted in reconstitution buffer (Cisbio Inc.) was added to each well. Following incubation for 3 hrs at room temperature, Homogeneous Time-Resolved Fluorescence (HTRF) was measured using the Envision (Perkin Elmer) at 665 nm and […]. The ratio of fluorescence at 665 nm to 620 nm was used as a readout for IL6 quantification. All samples were processed in duplicate. Readings were normalized to DMSO treated cells and normalized activities were utilized for EC50 calculations using the dose-response log (inhibitor) vs. response -variable slope (four parameters) nonlinear regression feature available in GraphPad Prism 5.0 (or Dotmatics). For EC50 of >10 μM, the percent inhibition at 10 μM is provided.

EC50 (SW480 colon cancer cells) [µM] | EC50 (IL-6 in THP-1 cells) [µM] | SMILES | inhibition at 10 µM (SW480 colon cancer cells) [%] | EC50 [1] [µM] | inhibition at 10 µM [1] [%] | inhibition at 10 µM (IL-6 in THP-1 cells) [%]
> 10 | > 10 | CCC(=O)Nc1cncc(-c2ccc3[nH]nc(-c4nc5c(-c6cccc(F)c6)cncc5[nH]4)c3n2)c1 [Compound 1, N-(5-(3-(7-(3-Fluorophenyl)-3H-imidazo[4,5-c]pyridin-2-yl)-1H-pyrazolo[4,3-b]pyridin-5-yl)pyridin-3-yl)propionamide] | 0 | > 10 | 0 | 25.8
> 10 | > 10 | CC(C)CC(=O)Nc1cncc(-c2ccc3[nH]nc(-c4nc5c(-c6cccc(F)c6)cncc5[nH]4)c3n2)c1 [Compound 2, N-(5-(3-(7-(3-Fluorophenyl)-3H-imidazo[4,5-c]pyridin-2-yl)-1H-pyrazolo[4,3-b]pyridin-5-yl)pyridin-3-yl)-3-methylbutanamide] | 0 | 4.09 |  | 25.4
> 10 | > 10 | Fc1cccc(-c2cncc3[nH]c(-c4n[nH]c5ccc(-c6ccncc6)nc45)nc23)c1 [Compound 18, 3-(7-(3-Fluorophenyl)-3H-imidazo[4,5-c]pyridin-2-yl)-5-(pyridin-4-yl)-1H-pyrazolo[4,3-b]pyridine] | 6.5 | > 10 | 0 | 8.6
8.68 | > 10 | O=C(Nc1cncc(-c2ccc3[nH]nc(-c4nc5c(-c6ccc(F)cc6)cncc5[nH]4)c3n2)c1)C1CCC1 [Compound 49, N-(5-(3-(7-(4-Fluorophenyl)-3H-imidazo[4,5-c]pyridin-2-yl)-1H-pyrazolo[4,3-b]pyridin-5-yl)pyridin-3-yl)cyclobutanecarboxamide] |  | 3.23 |  | 37.7
> 10 | > 10 | Fc1ccc(-c2cncc3[nH]c(-c4n[nH]c5ccc(-c6cncnc6)nc45)nc23)cc1 [Compound 55, 3-(7-(4-Fluorophenyl)-3H-imidazo[4,5-c]pyridin-2-yl)-5-(pyrimidin-5-yl)-1H-pyrazolo[4,3-b]pyridine] | 0 | > 10 | 21.4 | 13.4
> 10 | 0.094 | Nc1cncc(-c2ccc3[nH]nc(-c4nc5c(-c6ccccc6F)cncc5[nH]4)c3n2)c1 [Compound 59, 5-(3-(7-(2-Fluorophenyl)-3H-imidazo[4,5-c]pyridin-2-yl)-1H-pyrazolo[4,3-b]pyridin-5-yl)pyridin-3-amine] | 0 | 3.4 |  | 
> 10 | > 10 | CC(C)C(=O)Nc1cncc(-c2ccc3[nH]nc(-c4nc5c(-c6ccccc6F)cncc5[nH]4)c3n2)c1 [Compound 65, N-(5-(3-(7-(2-fluorophenyl)-3H-imidazo[4,5-c]pyridin-2-yl)-1H-pyrazolo[4,3-b]pyridin-5-yl)pyridin-3-yl)isobutyramide] | 0 | > 10 | 1.9 | 28.2
> 10 | > 10 | CC(C)(C)CC(=O)Nc1cncc(-c2ccc3[nH]nc(-c4nc5c(-c6ccccc6F)cncc5[nH]4)c3n2)c1 [Compound 72, N-(5-(3-(7-(2-fluorophenyl)-3H-imidazo[4,5-c]pyridin-2-yl)-1H-pyrazolo[4,3-b]pyridin-5-yl)pyridin-3-yl)-3,3-dimethylbutanamide] | 9.8 | > 10 | 0 | 29.8
8.9 | > 10 | O=C(Nc1cncc(-c2ccc3[nH]nc(-c4nc5c(-c6ccccc6F)cncc5[nH]4)c3n2)c1)C1CCCC1 [Compound 78, N-(5-(3-(7-(2-Fluorophenyl)-3H-imidazo[4,5-c]pyridin-2-yl)-1H-pyrazolo[4,3-b]pyridin-5-yl)pyridin-3-yl)cyclopentanecarboxamide] |  | 9.08 |  | 40.4
> 10 | > 10 | c1cncc(-c2ccc3[nH]nc(-c4nc5c(-c6cccnc6)cncc5[nH]4)c3n2)c1 [Compound 88, 5-(Pyridin-3-yl)-3-(7-(pyridin-3-yl)-3H-imidazo[4,5-c]pyridin-2-yl)-1H-pyrazolo[4,3-b]pyridine] | 7.1 | 4.96 |  | 13.9
> 10 | > 10 | CC(C)C(=O)Nc1cncc(-c2ccc3[nH]nc(-c4nc5c(-c6cccnc6)cncc5[nH]4)c3n2)c1 [Compound 93, N-(5-(3-(7-(Pyridin-3-yl)-3H-imidazo[4,5-c]pyridin-2-yl)-1H-pyrazolo[4,3-b]pyridin-5-yl)pyridin-3-yl)isobutyramide] | 6.3 | > 10 | 12.2 | 18
> 10 | 0.03 | c1ccc(CNCc2cncc(-c3ccc4[nH]nc(-c5nc6c(-c7cccnc7)cncc6[nH]5)c4n3)c2)cc1 [Compound 108, N-Benzyl-1-(5-(3-(7-(pyridin-3-yl)-3H-imidazo[4,5-c]pyridin-2-yl)-1H-pyrazolo[4,3-b]pyridin-5-yl)pyridin-3-yl)methanamine] | 0 | > 10 | 0 | 

Source: patent publication US10188634B2, “3-(3H-imidazo[4,5-C]pyridin-2-yl)-1 H-pyrazolo[4,3-B]pyridines and therapeutic uses thereof” (Samumed, LLC, priority 2015, dated 2019)
